Values belong to the molecule of their own block, whether it stands above or below them.
Assays:
[1] = reaction mole ratio (processing concentration) influence test for the GS-SS-SG protection effect; assay type: physicochemical; settings: 400-fold higher concentration than GS-SS-SG (10 μM), pH 7.0, 37° C., one hour; FIG. 8
Experimental: In order to detect the active sulfur molecules with high sensitivity, it is important to form a stable derivative. In order to do so, it is necessary to add a high-concentration alkylating agent to a specimen; and it is known that the addition of the high-concentration alkylating agent promotes the decomposition of the active sulfur molecules (NPL 1). So, processing concentration dependency of the active sulfur molecules stabilization activity of TME-IAM was analyzed by using the active sulfur molecules GS-SS-SG.
(§1) The following were mixed: 50 μL of 200 mM phosphate buffer (pH 7.0) (final concentration: 100 mM) and 5-20 μL of a TME-IAM solution (final concentration: 0.25, 0.5, 1, 2, 4 mM), 10 μL of 100 μM GS-SS-SG (final concentration: 10 μM), and 20-35 μL of ultrapure water; and the mixture was incubated at 37° C. while shielding light. One hour after the start of the reaction, 10 μL of the reaction solution and 90 μL of 0.1% formic acid were mixed, thereby terminating the reaction. By performing the LC-MS/MS analysis by using unreacted 1 μM GS-SS-SG as standard, a residual amount of GS-SS-SG in the reaction solution was analyzed.

[2] = esterase-dependent by-product formation in mice liver homogenate in 80% methanol; assay type: in vitro ADME; settings: mice liver tissues homogenized in 80% methanol containing 1 mM TME-IAM, one hour at 37° C.; FIG. 11B
Experimental: (§2) The following test was conducted with regard to cell permeability and esterase sensitivity of TME-IAM. FIG. 11 illustrates representative mass chromatographs of (A) HEK (human embryonic kidney) 293T cells and (B) mice liver homogenate which were processed with TME-IAM.
(§3) After processing the HEK 293T cells for one hour at 37° C. by using 1 mM TME-IAM, they were homogenized by ultrasonication in 80% methanol. The mice liver tissues were also homogenized by ultrasonication in 80% methanol containing 1 mM TME-IAM and were incubated for one hour at 37° C. After centrifugal separation of each of them, the obtained supernatant was collected and then diluted to 10 times by using 0.1% FA (formic acid).
(§4) Next, the mixture was made to undergo the LC-ESI-MS/MS analysis and individual by-products driving from TME-IAM, its glutathione adduct (GS-AM-TME), and esterase dependency cleavage were detected. They are Tyr-IAM ((2-iodoacetyl)-I-tyrosine) and GS-AM-Tyr (GSH adduct of (2-iodoacetyl)-1-tyrosine), respectively.
Accordingly, in order to evaluate the possibility of forming these derivatives when in vivo samples are used for the reactivity sulfur metabolome analysis, mice liver tissues were prepared in 80% methanol containing 1 mM TME-IAM, homogenized, and incubated for one hour at 37° C., and the obtained samples were analyzed by LC-ESI-MS/MS.

[3] = stabilization test for active sulfur molecules (residual GS-SS-SG by LC-MS/MS); assay type: physicochemical; settings: 1 mM alkylating agent, 10 μM GS-SS-SG, pH 7.0, 37° C., FIG. 6; for active sulfur molecules stabilization (inhibition of GS-SS-SG autolysis): up to 4 hours
Experimental: Next, the stabilization effect of active sulfur molecules of each alkylating agent containing the new tyrosine derivative was evaluated. Oxidized glutathione tetrasulfide (GS-SS-SG) was used as a model compound for the active sulfur molecules.
The following were mixed: 50 μL of 200 mM phosphate buffer (pH 7.0) (final concentration: 100 mM), 5 μL of 20 mM alkylating agent (TME-IAM, HPE-IAM, MBB, IAM) or DMSO (final concentration: 1 mM), 10 μL of 100 μM GS-SS-SG (final concentration: 10 μM), and 35 μL of ultrapure water; and the mixture was incubated at 37° C. while shielding light. One, 2, 3, and 4 hours after the start of the reaction, 10 μL of the reaction solution and 90 μL of 0.1% formic acid were mixed, thereby terminating the reaction. By performing the LC-MS/MS by using unreacted 1 μM GS-SS-SG as standard, a residual amount of the GS-SS-SG in the reaction solution was analyzed.

[4] = stabilization of oxidized glutathione polysulfides with different numbers of sulfur atoms; assay type: physicochemical; settings: 1 mM TME-IAM, 10 μM GS-SSS-SG, pH 7.0, 37° C., 30 minutes after the processing; FIG. 9
Experimental: It has been made clear that compounds with different quantities of sulfur atoms included in the molecules exist in the active sulfur molecules. In general, the compound including a larger number of sulfur atoms has higher reactivity and has unstable molecules. So, the active sulfur molecules stabilization effect of TME-IAM was analyzed by using the active sulfur molecules with different quantities of the contained sulfur atoms. For this analysis, oxidized glutathione pentasulfide (GS-SSS-SG) and oxidized glutathione trisulfide (GS-S-SG) were used in addition to GS-SS-SG.
The following were mixed: 50 μL of 200 mM phosphate buffer (pH 7.0) (final concentration: 100 mM) and 5 μL of […] TME-IAM solution (final concentration: 1 mM), 10 μL of 100 μM oxidized form glutathione polysulfide (GS-SSS-SG, GS-SS-SG, GS-S-SG) (final concentration: 10 μM), and 35 μL of ultrapure water; and the mixture was incubated at 37° C. while shielding light. […] By performing the LC-MS/MS analysis by using each unreacted 1 μM oxidized form glutathione polysulfide (GS-SSS-SG, GS-SS-SG, GS-S-SG) as standard, a residual amount of the oxidized form glutathione polysulfide GS-SSS-SG, GS-SS-SG, GS-S-SG) in the reaction solution was analyzed.

[5] = pH influence test for the GS-SS-SG protection effect; assay type: physicochemical; settings: one hour, FIG. 7
Experimental: Next, the pH influence of the GS-SS-SG protection effect of TME-IAM was evaluated. It has been clarified that the active sulfur molecules GS-SS-SG are stable under acid conditions, while they are very unstable under alkali conditions.
as §1, with “(pH 7.0, 7.5, 8.0)” for “(pH 7.0)”, “and 5” for “and 5-20”, “of 20 mM” for “of a”, “concentration: 1” for “concentration: 0.25, 0.5, 1, 2, 4”, “and 35” for “and 20-35”

[6] = reactivity with hydrogen sulfide (Na2S), adducts by LC-ESI-MS/MS; assay type: physicochemical; settings: 0.1 mM or 1 mM agent, 0.1 mM Na2S, one hour at 37° C.; FIG. 12
Experimental: The incubation of 0.1 mM or 1 mM TME-IAM (right side in FIG. 12) or MBB (left side in FIG. 12) was performed for one hour at 37° C. under the existence of 0.1 mM Na2S. As a result, the HS-adduct and the bis-S-adduct in the reaction mixture were respectively detected by the LC-ESI-MS/MS analysis.
The reaction mixture was separated by the Alliance e2695 system equipped with a YMC-Triart C18 column (inside diameter. 50×2.0 mm) and was then eluted with a linear gradient (30-99% for 5 minutes) by using methanol as a mobile phase under the existence of 0.1% FA (formic acid) at a flow speed of 0.3 mL/min at 40° C.

[7] = reactivity with cysteine hydropolysulfide, adducts by LC-ESI-MS/MS; assay type: physicochemical; settings: 1 mM agent, one hour at 37° C., CysS-(S)n—H from 100 μM cystine and 300 μM Na2S2; FIG. 10
Experimental: The reactivity of TME-IAM with respect to cysteine hydropolysulfide [CysS-(S)n—H] was verified as compared to HPE-IAM as indicated below.
CysSSH/CysS-(S)n—H which was prepared by incubating 100 μM cystine and 300 μM Na2S2 for 5 minutes at 37° C. was made to react with TME-IAM or HPE-IAM (1 mM each) for one hour at 37° C.
Next, its reaction mixture was provided to the LC-ESI-MS/MS analysis and respective adducts for CysSH/CysS-(S)n—H and HS^− (bis-S-adduct) were detected.
Incidentally, the concentration of each compound as sulfur is calculated according to the following formula: a concentration as sulfur=a concentration as the compound×the number of sulfur atoms in the compound (for example, in a case of CysSSH, the concentration as sulfur=2×[CysSSH]). Referring to FIG. 10, the concentrations of each adduct as the compound and sulfur are indicated as a bar with slanted stripes and a bar without stripes, respectively.

[8] = test system: HEK (human embryonic kidney) 293T cells; experiment: cell permeability and esterase sensitivity in HEK 293T cells; assay type: cell-based; settings: 1 mM TME-IAM, one hour at 37° C., FIG. 11A
Experimental: as §2, §3, §4

[9] = reactivity of alkylating agents with cysteine (LC-MS/MS of residual cysteine and cysteine adducts); assay type: physicochemical; settings: 1 mM alkylating agent, 0.1 mM cysteine, phosphate buffer pH 7.5, 37° C., 1, 3 and 8 hours; FIG. 5
Experimental: Next, the reactivity between the tyrosine derivative according to the present invention and the active sulfur species was examined.
The following were mixed: 50 μL of 200 mM phosphate buffer (pH 7.5) (final concentration: 50 mM), 2 μL of 100 mM alkylating agent (TME-IAM, TEE-IAM, NAT-IAM, HPE-IAM) or DMSO (final concentration: 1 mM), 2 μL of 10 mM cysteine (final concentration: 0.1 mM), and 146 μL of ultrapure water, and the mixture was incubated at 37° C. while shielding light. One, 3, and 8 hours after the start of the reaction, 10 μL of the reaction solution and 90 μL of 0.1% formic acid were mixed, thereby terminating the reaction. By performing the LC-MS/MS by using unreacted 10 μM cysteine as standard, a residual amount of the cysteine in the reaction solution was analyzed and the generation of cysteine adducts by various kinds of alkylating agents was analyzed.

[10] = 37° C., neutral pH (pH 7.0); stated as known; cited from earlier work
[11] = GS-SS-SG protection effect of N-iodoacetyl tyrosine; assay type: physicochemical; settings: compared with TME-IAM; FIG. 13
Description: Incidentally, N-iodoacetyl tyrosine is expressed with the following chemical formula.

esterase-dependent by-product Tyr-IAM in samples [2]: rarely detected
cell permeability [8]: can permeate through cell membranes
SMILES: COC(=O)[C@H](Cc1ccc(O)cc1)NC(=O)CI [TME-IAM, N-iodoacetyl tyrosine methyl ester]
reduction of GS-SS-SG at high alkylating agent concentration [1]: any significant reduction of GSSSSG was not observed
GS-SS-SG remained ([3]; incubation for 4 hours): approximately 80%
active sulfur molecules stabilization (inhibition of GS-SS-SG autolysis) [3]: high active sulfur molecules stabilization activity
decomposition suppression of GS-SSS-SG [4]: predominant decomposition suppression
GS-SS-SG remained ([5]; 1 mM TME-IAM, 10 μM GS-SS-SG, weakly alkaline solution (pH 8.0), 37° C.): approximately 70%
GS-SS-SG remaining compared with HPE-IAM ([5]; pH 8.0, 37° C.): higher value than that of the system to which the publicly known iodoacetamide derivative HPE-IAM was added
reactivity with hydrogen sulfide [6]: react with hydrogen sulfide and form the bis-S-adduct
amounts of CysSSH and CysSSSH detected [7]: significantly larger than those detected by using HPE-IAM
reactivity with the thiol group (cysteine) [9]: same level of reactivity with the thiol group (cysteine) as that of HPE-IAM

active sulfur molecules stabilization (inhibition of GS-SS-SG autolysis) [3]: inhibited significantly
SMILES: O=C(CI)NCCc1ccc(O)cc1 [HPE-IAM, f-(4-hydroxyphenyl) ethyl iodoacetamide, reference compound]
amount of HS− (bis-S adduct) decomposition product [7]: prominently higher than the amount of the product detected by using TME-IAM

SMILES: Cc1c(C)n2c(CBr)c(C)c(=O)n2c1=O [MBB, monobromobimane, reference compound]
reactivity with hydrogen sulfide [6]: react with hydrogen sulfide and form the bis-S-adduct
effect on decomposition of GS-SS-SG [10]: decomposition is promoted

SMILES: CC(=O)NC(Cc1ccc(O)cc1)C(=O)NC(=O)CI (stereo not drawn) [NAT-IAM]
reactivity with the thiol group (cysteine) [9]: lower reactivity with cysteine than that of TME-IAM and HPE-IAM

SMILES: O=C(CI)N[C@@H](Cc1ccc(O)cc1)C(=O)O [N-iodoacetyl tyrosine]
GS-SS-SG protection effect [11]: same level of the GS-SS-SG protection effect as that of TME-IAM

SMILES: CCOC(=O)C(Cc1ccc(O)cc1)NC(=O)CI (stereo not drawn) [TEE-IAM]
reactivity with the thiol group (cysteine) [9]: lower reactivity with cysteine than that of TME-IAM and HPE-IAM

Reference: patent US20230147021A1, “POLYSULFIDE STABILIZATION” (University Public Corporation Osaka, priority 2020, published 2023)
